Laboratory results as given in ChEMBL document CHEMBL1201862, “PubChem BioAssay data set” (2004).
Active and inactive are the calls of the source. No stated cut-off is given here; in the data, actives have a measured IC50 and inactives only a lower limit.

Target: Envelope glycoprotein gp160 (Human immunodeficiency virus 1, UniProt Q6QLK5)
Test: cell-free HIV fusion peptide-binding blockers – biochemical, uHTS, fluorescence dequenching, […] (AID 1986)

Envelope glycoprotein gp160, sequence (Q6QLK5 whole entry, the tested form may be a part): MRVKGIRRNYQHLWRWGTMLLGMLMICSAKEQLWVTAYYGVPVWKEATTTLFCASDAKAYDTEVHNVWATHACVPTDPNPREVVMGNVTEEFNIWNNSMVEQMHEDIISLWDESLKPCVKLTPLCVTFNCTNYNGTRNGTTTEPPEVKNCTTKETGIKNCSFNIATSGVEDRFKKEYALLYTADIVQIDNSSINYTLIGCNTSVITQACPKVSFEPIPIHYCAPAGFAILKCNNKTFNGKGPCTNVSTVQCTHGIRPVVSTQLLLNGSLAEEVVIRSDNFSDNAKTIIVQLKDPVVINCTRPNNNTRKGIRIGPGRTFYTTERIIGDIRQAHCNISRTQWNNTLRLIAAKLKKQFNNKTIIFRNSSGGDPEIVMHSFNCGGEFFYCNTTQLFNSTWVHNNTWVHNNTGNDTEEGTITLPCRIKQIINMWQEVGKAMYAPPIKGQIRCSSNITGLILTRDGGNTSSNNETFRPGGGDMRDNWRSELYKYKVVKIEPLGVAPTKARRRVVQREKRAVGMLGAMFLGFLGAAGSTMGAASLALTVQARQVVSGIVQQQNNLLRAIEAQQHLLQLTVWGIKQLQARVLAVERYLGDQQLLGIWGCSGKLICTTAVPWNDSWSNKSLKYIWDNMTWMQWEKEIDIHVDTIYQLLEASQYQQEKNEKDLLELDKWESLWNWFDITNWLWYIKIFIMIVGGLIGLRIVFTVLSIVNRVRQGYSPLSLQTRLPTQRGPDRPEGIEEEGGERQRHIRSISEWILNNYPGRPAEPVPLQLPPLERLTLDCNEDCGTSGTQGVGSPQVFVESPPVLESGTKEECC

| Structure (SMILES) | IC50 |
| --- | --- |
| C=CCOC(=O)C1=C(C)N=c2s/c(=C3\C(=O)N(CC(=O)O)c4ccccc43)c(=O)n2C1c1ccc(OC)cc1 (configuration not stated) | 18 µM (active) |
| CCOC(=O)C1=C(C)N=c2s/c(=C/c3ccc(OCC(=O)O)cc3)c(=O)n2C1c1ccc(SC)cc1 (configuration not stated) | 12.7 µM (active) |
